Experimental data published in patent US6989263B1, “Method for identifying and using compounds that inactivate HIV-1 and other retroviruses by attacking highly conserved zinc fingers in the viral nucleocapsid protein” (The United States of America as represented by the …, priority 1994, dated 2006).

Key:
genomic RNA = settings: cited from earlier work
HIV-1 = settings: incubation of HIV-1; cited from earlier work
lymphocytes = settings: cited from earlier work
HIV-1 (MN) p7NC = target: T1, HIV-1 (MN) p7NC (Human immunodeficiency virus type 1 group M subtype B, UniProt P05888); assay: Intrinsic Trp-37 fluorescence quenching of p7NC; format: biochemical; settings: Trp-37 fluorescence, zinc-reconstituted p7NC
T1 construct: The NC protein of HIV-1 (MN) p7NC was expressed in E. coli; made in house; host or cells: E. coli (vector pMAL-c)
From the text: The NC protein of HIV-1 (MN) p7NC was expressed in E. coli. The coding sequence for HIV-1(MN) p7NC was cloned and expressed using an inducible E. coli promoter in the vector pMAL-c (New England Biolabs Inc., Beverly, Mass.). The protein was expressed as a maltose-binding fusion protein and released by proteolysis with Factor Xa. HIV-1(MN) p7NC was purified by HPLC and characterized, including complete amino acid sequence analysis. p7NC was purified by high-pressure liquid chromatography (HPLC) and reconstituted with two equivalents of zinc to generate native protein as described (M. F. Summers et al., Protein Sci. 1, 563 (1992)).
Coordination of Zn^+2 enhances the intrinsic fluorescence of the single tryptophan (Trp-37) in the second zinc finger. […] The initial phase of the reaction with Cu^+2 (T1/2<20 seconds) gave 70% quenching of the original fluorescence, followed by a much slower phase (T1/2 ca. 6 minutes), resulting in a final limiting quenching of 85%.
The first quenching phase was a second order reaction, whereas the second phase was independent of protein concentration or oxidizing species.

HIV-1MN = assay: Effect of NOBA on intact HIV-1MN (p24, zinc, TCIU of pelleted virus); format: cell-based; settings: for Zn: pelleted virus
[1] = target: HIV-1 CCHC zinc finger array (Human immunodeficiency virus type 1 group M subtype B, UniProt P04591); settings: incubation of HIV-1; cited from earlier work

NC(=O)c1cccc(N=O)c1 [NOBA, 3-nitrosobenzamide]
levels of genomic RNA in the inactivated virus (genomic RNA): did not influence | viral inactivation (HIV-1): viral inactivation | bindings of virus to lymphocytes (lymphocytes): did not influence | change in intrinsic fluorescence of p7NC on incubation (HIV-1 (MN) p7NC): rapid biphasic decrease in fluorescence | virus inactivated (HIV-1MN; 0.03 mM, ratio of NOBA to zinc fingers 50:1): greater than 99% | tissue culture infectious unit (TCIU/ml) (HIV-1MN; NOBA 0.03 mM, 2 hours): 1.0 × 10^3 TCIU/ml | Zn (HIV-1MN; NOBA 0.03 mM, 2 hours): 0.21 µg/mL | Zn (HIV-1MN; NOBA 0.3 mM, 2 hours): 0.21 µg/mL | Zn (HIV-1MN; NOBA 3.0 mM, 2 hours): 0.11 µg/mL | zinc loss from the HIV-1 CCHC zinc finger array [1]: loss of zinc
